Measurements as given in patent publication US20150182583A1, “METHODS FOR TREATMENT AND PREVENTION OF TAUOPATHIES BY INHIBITING ENDOTHELIN RECEPTORS” (Board of Regents, The University of Texas System, priority 2012, published 2015).
“Also recorded” adds a separate entry of the source. Non-standard residues stand in square brackets, D forms with d. Residues, ends and D or L forms follow the SMILES beside them. dGly(5-dibenzosuberyl) = N[C@@H](C(=O)O)C1c2ccccc2CCc2ccccc21

Tests used:
MDA231 = assay: Tumor cell-astrocyte protection assay (MDA231 protection assay); type: cell-based, human; conditions: FIG. 15
[1] = tested on: ET-1 stimulated astrocytes; assay: Real-time PCR of APOE/TAU mRNA in ET-1 stimulated astrocytes; type: cell-based, murine; conditions: ET-1 (100 nM) 24 hr; PD145065 (1 μM) added 2 hrs prior to ET-1; FIG. 12
Experimental: FIG. 12: Expression level of APOE and TAU expression level in control astrocytes and astrocytes treated with BQ123 plus […] or PD145065. Treatment groups were as follows: Control, ET-1 (100 nM), ET-1+BQ123/BQ788 (1 μM), ET-1+PD145065 (1 μM). Cells were treated with ET-1 for 24 hr. BQ123, BQ788 or PD145065 was added 2 hrs prior to ET-1 stimulation.
To determine whether ETs upregulation in astrocytes culture with tumor cells, we performed in vitro coculture experiments. Astrocytes and NIH 3T3 fibroblasts were transfected with green fluorescent protein (GFP) genes. […] RT-PCR was performed using TaqMan® Universal PCR MasterMix and quantified with an ABI 7500 real time PCR system (Applied Biosystems, Foster City, Calif.). […] Relative mRNA expression was calculated according to the […], and expressed as mean±S.D. of mRNA relative to that of control.
Astrocytes and NIH 3T3 fibroblasts were transfected with green fluorescent protein (GFP) genes. […] RT-PCR was performed using TaqMan® Universal PCR MasterMix and quantified with an ABI 7500 real time PCR system (Applied Biosystems, Foster City, Calif.). […] Relative mRNA expression was calculated according to the AACt method and expressed as mean±S.D. of mRNA relative to that of control.

ETA and ETB receptors = assay: Immunohistochemistry of endothelin receptor phosphorylation (with the protection assay); type: cell-based; conditions: FIG. 15
Excerpt: Next the inventor used the compound PD 145065, which is a dual endothelin receptor inhibitor (antagonist), in further experiments. […] PD145065 may be administered orally to mice. Based on the in vitro data, it is anticipated that PD145065 may be used to decrease TAU in the brain in vivo.

TAU [2] = assay: Chronic hypoxia (hypoxia chamber) in mice, TAU immunohistochemistry; type: in vivo, mouse; conditions: hypoxia chamber 1-3 days; daily i.p. injections, or pretreatment 7 days before 48 hours of hypoxia
Experimental: Mice were placed in a sealed plexiglass chamber with controlled input of oxygen-nitrogen gas to establish an oxygen level of 5.705% oxygen. One to 3 days later, the mice are euthanized or placed in room air (normoxia). The brains are harvested, fixed in formalin, or frozen for histology/immunohistochemistry examination. Staining for GFAP (astrocytes), TAU, endothelin receptor A or B (phosphorylation) was carried out.
Mice were placed in a hypoxia chamber for 1-3 days are taken out and divided into 2 groups: (1) treated with PD145065 (dual endothelin receptor inhibitor), or (2) saline. Treatments are by daily i.p. injections. The brains of control and treated mice are harvested 2-5 days later and processed for histological examination Immunohistochemistry for GFAP, TAU, ETAR, and ETBR (phosphorylation) was carried out.
The following methods were used for the chronic hypoxia (hypoxia chamber) experiments. Mice were placed in a sealed plexiglass chamber with controlled input of oxygen-nitrogen gas to establish an oxygen level of 5.705% oxygen. One to 3 days later, the mice were euthanized or placed in room air (normoxia). The brains were harvested, fixed in formalin, or frozen for histology/immunohistochemistry examination. Staining for GFAP (astrocytes), TAU, endothelin receptor A or B phosphorylation was carried out. […]

[3] = tested on: endothelin receptors A and B; assay: Mouse model of brain trauma, endothelin receptor phosphorylation; type: in vivo; conditions: 10 mg/kg/day i.p. for 5 days prior to wounding, continued 3 days after
TAU [4] = assay: Mouse model of brain trauma (parenchymal wound), TAU immunofluorescent staining; type: in vivo; conditions: 10 mg/kg/day i.p. for 5 days prior to wounding, continued 3 days after; brains harvested 3 days after wounding
Excerpt: Brain parenchymal wound was created by inserting a needle (32 G-21 G) by stereotactic injection unit. In brief, a mouse was anesthetized with Nembutal ([…]) and fixed in the stereotactic injection unit. Skin incision was made in the forehead and a hole was made in the calvaria with a 21 G needle. Injection needle was inserted into the brain parenchyma (4-mm depth) and withdrawn. Hole was blocked with bone wax and skin incision was closed with skin staples.
(§1) A mouse model of brain trauma was used to evaluate the effect of a dual endothelin receptor antagonist (PD 145065) on TAU expression after a brain trauma. A parenchyma mouse model of brain trauma was used such that mice received a stereotaxically administered wound to the brain Immunochemistry was performed on brain samples to evaluate GFAP and TAU expression.
(§2) The mice were euthanatized 1, 2, or 4 days after creating the wound in the brain parenchyma. The brains were removed, fixed in formalin and stained for GFAP or (GFAP and TAU) using immunofluorescent staining.
(§3) Mice were pretreated with PD145065 10 mg/kg/day i.p. injection for 5 days prior to brain wounding. Control mice received saline injections. Treatment continued for 3 days after wounding. The brains were harvested 3 days after wounding and immunofluorescent staining immunohistochemistry experiments were performed.

[5] = Body weight of mice treated with paclitaxel with or without PD145065; type: in vivo, mouse
Experimental: Studies to evaluated prevention and/or treatment of chemo-brain by PD145065 were performed. Female athymic nude mice (NCI-nu) were used in these studies. Mice were used in these experiments in accordance with institutional guidelines when they were 14-16 weeks old. Mice were randomized as follows;
Mice showing weight loss, dehydration (poor skin tugor) or poor movement (poor oral intake, decreased ambulation, etc.) were defined as symptomatic mice.
Prevention and/or treatment of Chemo-brain by PD145065 was evaluated via the following protocol. Treatment continued for 12 weeks and treatment and prevention groups were defined as follows: […]
(1) Treatment group—mice receiving TMZ or taxol (group 3 or 4) and showing symptoms defined above for two consecutive weeks began to receive PD145065;
(3) Prevention group—mice were receiving (PD+TMZ) or (PD+taxol) for 12 weeks (group 5 or 6).

GFAP = assay: Mouse model of brain trauma, GFAP staining; type: in vivo; conditions: 10 mg/kg/day i.p. for 5 days prior to wounding, continued 3 days after
Experimental: as §1, §2, §3

TAU [6] = assay: Mouse model of chemo-brain (paclitaxel or TMZ), TAU immunohistochemistry; type: in vivo; conditions: for TAU production/expression in brain caused by the chemotherapeutic: mice bearing brain cancer (LN229 GBM) or normal mice, paclitaxel 8 mg/kg i.p. twice per week, TMZ 7.5 mg/kg p.o. daily
Experimental: The following methods were used to test for the in vivo effect of a dual endothelin receptor on a mouse model of chemo-brain. PD145065: SIGMA (SCP0143, 5 mg) was reconstituted in PBS containing 0.1% BSA. Temozolomide (TMZ): SIGMA (T2577-100 MG), was reconstituted in DMSO (10 mg/mL) with sonication and diluted in HBSS before treatment TAXOL (paclitaxel): Hospira (NDC 61703-342-09, 6 mg/mL) was diluted in saline before treatment. Mice were treated for 6 weeks with either TMZ (7.5 mg/kg, p.o., daily) or paclitaxel (8 mg/kg, i.p., twice per week) with or without PD145065 (10 mg/kg, i.p., daily). Treatment groups were as follows:
Mice were euthanized and the brains were collected and frozen (OCT) or placed in formalin and embedded in paraffin and then processed for IHC. Female nude mice were treated with Taxol (8 mg/kg) i.p. twice per week for six weeks. […] Female nude mice were treated orally with 7.5 mg/kg TMZ every day for six weeks.

| Structure (SMILES) | blocking the ability of astrocytes protection of tumor cells from chemotherapy (MDA231) | APOE/TAU mRNA expression [1] | phosphorylation of ETA and ETB receptors (ETA and ETB receptors) | TAU expression in brain resulting from hypoxia (TAU [2]) | phosphorylation of endothelin receptors A and B (ETAR, ETBR) in wounded brain [3] | TAU expression / TAU positive cells in brain after wound (TAU [4]) | weight loss associated with paclitaxel, prevention (co-administration) ([5]; PD 10 mg/kg i.p. daily plus taxol 8 mg/kg i.p. twice per week, FIG. 23) | weight loss associated with paclitaxel, treatment group ([5]; PD145065 given to mice receiving paclitaxel beginning on day 49, FIG. 22) | GFAP in wounded brain (GFAP) | TAU expression in brain of mice treated with paclitaxel or TMZ (TAU [6]; PD145065 10 mg/kg i.p. daily, 6 weeks, TMZ 7.5 mg/kg p.o. daily or paclitaxel 8 mg/kg i.p. twice per week) | body weight of paclitaxel-treated mice ([5]; paclitaxel alone, FIG. 22) | TAU production/expression in brain caused by the chemotherapeutic (TAU [6]) | TAU production/expression in brain caused by the chemotherapeutic (TAU [6]; listed as Taxol) | TAU production/expression in brain caused by the chemotherapeutic (TAU [6]; listed as TMZ) |
| --- | --- | --- | --- | --- | --- | --- | --- | --- | --- | --- | --- | --- | --- | --- |
| CC[C@H](C)[C@H](NC(=O)[C@H](CC(=O)O)NC(=O)[C@H](CC(C)C)NC(=O)[C@H](NC(C)=O)C1c2ccccc2CCc2ccccc21)C(=O)N[C@H](C(=O)N[C@@H](Cc1c[nH]c2ccccc12)C(=O)O)[C@@H](C)CC [PD145065, N-Acetyl-α-[10,11-Dihydro-5H-dibenzo[a,d]cycloheptadien-5-yl]-D-Gly-Leu-Asp-Ile-Ile-Trp] (Ac-[dGly(5-dibenzosuberyl)]LDIIW-OH) | as effective as the combination of BQ123 and BQ788 | observed to have an effect | can prevent phosphorylation | inhibited TAU expression; also recorded: significantly lower than in the brains of control mice; also recorded: reduced tau expression; also recorded: significant decrease in TAU expression | inhibited phosphorylation; also recorded: reduced phosphorylation or be not phosphorylated | not in brains of mice pretreated; also recorded: significantly diminished or eliminated; also recorded: negative; also recorded: reduced tau expression | completely inhibit the weight loss | reversal of the weight loss | unchanged; also recorded: contain activated (GFAP-positive) astrocytes | significantly reduced TAU expression |  |  |  |  |
| CC(=O)O[C@H]1C(=O)[C@@]2(C)[C@H]([C@H](OC(=O)c3ccccc3)[C@]3(O)C[C@H](OC(=O)[C@H](O)[C@@H](NC(=O)c4ccccc4)c4ccccc4)C(C)=C1C3(C)C)[C@]1(OC(C)=O)CO[C@@H]1C[C@@H]2O [paclitaxel] |  |  |  |  |  |  |  |  |  |  | loss of weight | result in the production of TAU | high expression of TAU |  |
| Cn1nnc2c(C(N)=O)ncn2c1=O [temozolomide] |  |  |  |  |  |  |  |  |  |  |  | result in the production of TAU |  | high expression of TAU |
